The values that follow come from patent US20140187786A1, “1,3,4-TRISUBSTITUTED BENZENES” (EnVivo Pharmaceuticals, Inc., priority 2007, published 2014).

As for `CC(C)CC(C(=O)O)c1ccc(-c2ccc(C(F)(F)F)cc2)c(OCC2CC2)c1` (stereo not shown) [Example 142, 2-(2-cyclopropylmethoxy-4′-trifluoromethyl-biphenyl-4-yl)-4-methyl-pentanoic acid], the melting point (usually the temperature of the solid-liquid transition) lay within 142 to 143 °C.
